Data taken from patent US11467160B2, “Method of therapy selection for patient suffering from glioblastoma” (INSERM (Institut National de la Santé et de la Recherche …, priority 2017, dated 2022).
Entries after “also recorded” stand apart in the source; their conditions may differ.

Columns and labels:
[1] = test system: recurrent GBM patients; conditions: Phase II, with temozolomide (Groves 2002); cited from earlier work
[2] = test system: GBM patients; conditions: phase III clinical trial (Levin 2006); cited from earlier work
[3] = test system: U87 CD90 cells; assay: Boyden chamber migration assay, U87 CD90 cells; format: cell-based, human; conditions: for U87 CD90 cell migration: 10 μM inhibitor, 15 minutes pre-incubation, kept during 24-hours Boyden chamber assay
Method: (§1) FIG. 3: CD90 signals through SRC, FAK and RhoA molecules and CD90 dependent migration is blocked by dasatinib in vitro and in vivo. Parental (wt), control (shCTR #), CD90-down expressing (shCD90 #, n=3) U251 cells; as well as parental (wt), control (CTR #) and CD90 expressing (CD90 #, n=3) U87 cells were cultured at low cell density, lysed and analyzed by Western-blot for phosphoSRC, SRC, phosphoFAK, FAK and β-actin expression. Protein phosphorylation levels were calculated as described in Materials and Methods part (A). CD90low (black) and CD90high (blank) RNS (n=12, square symbol) and RADH (n=6, circle symbol) cells were analyzed by Western-blot for phosphoSRC, SRC, phosphoFAK, FAK and β-actin expression. Protein phosphorylation levels were calculated in (B). CD90-expressing parental U251 and CD90 #1 U87 cells were tested in a 24-hours Boyden chamber migration assay as described in FIG. 2 in the presence of DMSO (as control), PP2, dasatinib (both SRC inhibitors), Y15 (FAK inhibitor) and Y-27632 (ROCK inhibitor) (C). CD90-expressing parental U251 and CD90 #1 U87 cells were transfected without (siØ), with siRNA GL2 (control) or siRNA RhoA during 48 hours, and tested in a 24-hours Boyden chamber migration assay (D). RhoA expression was tested by Western-blot (D). Migration was given by the number of migrated cells obtained per field (C and D). CD90high RNS (n=4, square symbol) and RADH (n=4, circle symbol) cells were tested in a 24-hours Boyden chamber migration assay in the presence of DMSO or dasatinib (E). Representative fields are shown in (E). CD90 expressing U87 cells were orthotopically implanted in immunocompromised mice brain. One week after injection, mice were fed with control vehicle (n=7) or dasatinib (40 mg/kg/day, n=7) for 20 days. Control and dasatinib-treated mice were sacrificed 28 days after injection. Brains were collected and sections were analyzed after H&E staining (F). (*): p<0.05; (**): p<0.01; (***): p<0.001.
Preparation of CD90 knocked-down U251 and CD90 expressing U87 GBM cell lines—U251 cells were transfected with pLKO.1-puro plasmids containing shRNA constructs targeting CD90 mRNA and targeting non-mammalian mRNA (Sigma-Aldrich) using the Lipofectamine 2000 reagent (Life Technologies, St Aubin, France) according to the manufactor's instructions. After one week of culture under the selective antibiotic puromycin used at 10 μg/ml, transfected U251 cells were amplified and then cloned in 96-well plates at 0.1 cell/well. CD90 knocked-down U251 cell lines were expanded and selected for their decreased expression of CD90. U87 cells were transfected with CD90 cDNA (GeneWiz, Sigma-Aldrich) cloned into the pLKO.1-puro plasmid with EcoRI and BamHI enzymes using the Lipofectamine 2000 reagent. […]

[4] = test system: CD90-expressing parental U251 cells; assay: Boyden chamber migration assay, parental U251 cells; format: cell-based, human; conditions: for U251 cell migration: 10 μM inhibitor, 15 minutes pre-incubation, kept during 24-hours Boyden chamber assay
Method: as §1
Boyden chamber migration assay—Parental, controls and transfected U251 and U87 cell lines were washed in DMEM, placed in Boyden chambers (10^5 cells/chamber in DMEM) that were placed in DMEM 20% FBS and incubated at 37° C. for 24 hours. After 24 hours, Boyden chambers were washed in PBS and cells were fixed in PBS 0.5% paraformaldehyde. Non-migrated cells inside the chambers were removed and cells were then stained with Giemsa (RAL Diagnostics, Martillac, France). After washes in PBS, pictures of 5 different fields were taken. Migration was given by the mean of number of migrated cells observed per field. […]

[5] = test system: bevacizumab-treated recurrent GBM patients; conditions: phase II trial (Lassman 2015); cited from earlier work
[6] = test system: U87 CD90 cells; assay: Orthotopic xenograft mouse model with U87 CD90 cells; format: in vivo, mice
Method: as §1, with “CD90high RNS (n=4, square symbol) and RADH (n=4, circle symbol) cells were tested in a 24-hours Boyden chamber migration assay in the presence of DMSO or dasatinib (E). Representative fields are shown in (E). CD90 expressing U87 cells were orthotopically implanted in immunocompromised mice brain. One week after injection, mice were fed with control vehicle (n=7) or dasatinib (40 mg/kg/day, n=7) for 20 days. Control and dasatinib-treated mice were sacrificed 28 days after injection.” left out, “(*): p<0.05; (**): p<0.01; (***): p<0.001.” left out
Orthotopic mouse model—Eight-weeks old male Balb/c NOD-SCID mice (Janvier, Saint Berthevin, France) were housed in an animal care unit authorized by the French Ministries of Agriculture and Research (Biosit, Rennes, France—Agreement No. B35-238-40). […] Mice were daily clinically monitored and sacrificed 28 days after implantation. […] Tumor burden was compared in the different groups of mice and analyzed using ImageJ software. […]
To evaluate the CD90-dependent effects of dasatinib in vivo, U87 CD90 cells were used in an orthotopic xenograft mouse model. […] Mice were analyzed using MRI 28 days post-injection and were sacrificed. […]

[7] = test system: glioma cell invasion; conditions: preclinical phase; cited from earlier work
[8] = test system: CD90high RNS cells; assay: Viability of CD90high RNS cells; format: cell-based, human
[9] = test system: primary CD90high GBM lines; assay: Boyden chamber migration assay, primary CD90high GBM lines (RNS and RADH); format: cell-based, human; conditions: CD90high RNS (n=4) and RADH (n=4) cells, 24-hours Boyden chamber assay
Method: FIG. 3: CD90 signals through SRC, FAK and RhoA molecules and CD90 dependent migration is blocked by dasatinib in vitro and in vivo. Parental (wt), control (shCTR #), CD90-down expressing (shCD90 #, n=3) U251 cells; as well as parental (wt), control (CTR #) and CD90 expressing (CD90 #, n=3) U87 cells were cultured at low cell density, lysed and analyzed by Western-blot for phosphoSRC, SRC, phosphoFAK, FAK and β-actin expression. Protein phosphorylation levels were calculated as described in Materials and Methods part (A). CD90low (black) and CD90high (blank) RNS (n=12, square symbol) and RADH (n=6, circle symbol) cells were analyzed by Western-blot for phosphoSRC, SRC, phosphoFAK, FAK and β-actin expression. Protein phosphorylation levels were calculated in (B). […] Brains were collected and sections were analyzed after H&E staining (F). […]
Tumor specimens and cell culture—GBM samples were obtained after informed consent from patients admitted to the neurosurgery department at Rennes University Hospital for surgical resection in accordance with the local ethic committee. […] The extent of surgery was evaluated with an enhanced magnetic resonance imaging (MRI) performed within 24 hours after the resection. […]

[10] = test system: GBM patients; conditions: combined with temozolomide (Stupp 2014); cited from earlier work
[11] = dasatinib 40 mg/kg fed daily for 20 days from one week post-implantation, 28 days post-injection
[12] = 1 μM, 24-hours Boyden chamber assay

Q: Which “Effects on recurrent GBM patients” value [1] does the source give for CNC(=O)[C@@H](NC(=O)[C@H](CC(C)C)[C@H](O)C(=O)NO)C(C)(C)C [marimastat] here?
A: encouraging effects

Q: What about the Patient survival [2] of the same compound?
A: failed to improve

Q: With C[C@@H](N)[C@H]1CC[C@H](C(=O)Nc2ccncc2)CC1 [Y27632] as the compound, how does the inhibition at 10 µM ([3]; Homo sapiens, U87 CD90 cells, 10 μM, 24-hours Boyden chamber assay, read-out: Migration inhibition (reduction)) read?
A: 76%

Q: And the inhibition at 10 µM ([4]; Homo sapiens, U-251, U251 cells, 10 μM, 24-hours Boyden chamber assay, read-out: Migration inhibition (reduction))?
A: 53%

Q: For CC(C)(C)n1nc(-c2ccc(Cl)cc2)c2c(N)ncnc21 [PP2], which “U87 CD90 cell migration” value [3] is on record?
A: dramatically reduced

Q: And the U251 cell migration [4]?
A: dramatically reduced

Q: With Cc1nc(Nc2ncc(C(=O)Nc3c(C)cccc3Cl)s2)cc(N2CCN(CCO)CC2)n1 [dasatinib, N-(2-chloro-6-methylphenyl)-2-[[6-[4-(2-hydroxyethyl)piperazin-1-yl]-2-methylpyrimidin-4-yl]amino]-1,3-thiazole-5-carboxamide] as the compound, how does the “U87 CD90 cell migration” value [3] read?
A: dramatically reduced

Q: And the “Improvement of bevacizumab-treated recurrent GBM patients” value [5]?
A: failed to improve

Q: And the “CD90 tumor migration/invasion properties in vivo” value ([6]; U87 CD90 orthotopic xenograft, dasatinib 40 mg/kg)?
A: dramatically reduces; also recorded: blocks; also recorded: inhibits

Q: What about the “Mice with clear encapsulated tumors with regular edges, H&E staining” value [6, 11] of the same compound?
A: 4 out of 7

Q: And the “Mice with clear encapsulated tumors with regular edges, MRI” value [6, 11]?
A: 3 out of 4

Q: What about the U251 cell migration [4] of the same compound?
A: dramatically reduced

Q: And the “Inhibiting bevacizumab-induced glioma cell invasion” value [7]?
A: promising effect

Q: What about the “Viability of CD90high RNS cells” value [8] of the same compound?
A: affects viability

Q: And the “Migration of primary CD90high GBM lines” value [9]?
A: dramatically reduced

Q: With Cl.Cl.Cl.Cl.Nc1cc(N)c(N)cc1N [Y15] as the compound, how does the “Effect on the migration of U87 CD90 cells” value [3, 12] read?
A: no or limited effect

Q: What about the “Effect on the migration of U251 cells” value [4, 12] of the same compound?
A: no or limited effect

Q: For CC(C)[C@H]1C(=O)N[C@@H](CCCN=C(N)N)C(=O)NCC(=O)N[C@@H](CC(=O)O)C(=O)N[C@H](Cc2ccccc2)C(=O)N1C [Cilengitide], which “Effects on GBM patients” value [10] is on record?
A: limited effects
